Measurements reported in patent US10493091B2, “Method for storing P1, P4-bis(5′-uridyl)teraphosphate crystals” (Yamasa Corporation, priority 2015, dated 2019).

Columns and labels:
[1] = pH measurement of UP4U crystals (crystal pH); format: physicochemical; details: 1.0 g dissolved in 20 mL distilled water
Experimental: The term crystal pH in the present invention refers to the value of pH of crystals measured with 1 g of crystals dissolved in 20 mL of water. The control of the pH of UP4U crystals within a desired range of values is possible, for example, by controlling the pH of an original solution for use in crystallization. To control the pH, it is sufficient to use, as necessary, an arbitrary acid or alkali capable of being used for production of raw materials or the like for pharmaceutical products. An arbitrary one selected from hydrochloric acid, nitric acid, phosphoric acid, and so on can be used as the acid and an arbitrary one selected from sodium hydroxide, sodium carbonate, sodium hydrogen carbonate, and so on can be used as the alkali.
Control of UP4U Crystals with Different pHs UP4U crystals prepared by a known method were dissolved in deionized water. Various phosphoric acid aqueous solutions or sodium hydroxide aqueous solutions were each added to the solution containing UP4U dissolved therein to prepare solutions having different pHs (hereinafter, referred to as “original solutions”).
Ethanol was put into each of the original solutions to make the original solution lightly cloudy, followed by addition of a small amount of UP4U crystals and stirring for a dozen hours. After confirmation of crystal precipitation, ethanol was further put into each of the solutions, the solution was stirred, and crystals were then separated from the solution using a centrifuge. The obtained various crystals were dried with a circulation dryer to prepare various UP4U crystals having different pHs.
(pH Measurement) Water was sufficiently boiled and then cooled in a state where a carbon dioxide absorption tube was connected, thus preparing distilled water. An amount of 1.0 g of each test sample was dissolved in 20 mL of the prepared distilled water. The pH (crystal pH) of this solution was measured.

[2] = Stability test of packed UP4U crystals, four weeks of storage, HPLC purity; format: physicochemical; details: for decrease in HPLC purity: regardless of the crystal pH
Experimental: (Packing of Test Sample) An amount of approximately 20 mg of each test sample was put into a pouch made of low-density polyethylene and sealed by heat sealing. This pouch was further put into a pouch made of low-density polyethylene and sealed by heat sealing. This pouch was still further put into a pouch made of low-density polyethylene and sealed by heat sealing. This pouch was put into a pouch made of aluminum-metallized film and sealed by heat sealing, thus preparing a sample for stability test. (Stability Test) Packed samples were put into thermostatic baths at 5° C., 25° C., 40° C., and 60° C., respectively, and stored for four weeks. (Analysis) For each sample zero days after the start of the stability test and samples of the same type at four weeks of storage at the different temperatures, the packing by sealing was opened and each of the test samples was dissolved in deionized water. This solution was analyzed by HPLC and, based on the analysis result, evaluated in terms of stability. The conditions of the measurement using HPLC in this analysis were as follows. [table] The evaluation was made by defining the value obtained by subtracting the HPLC purity (%) of crystals zero days after the start of the stability test from the HPLC purity (%) of the crystals at four weeks of storage as a rate of change (%).

Crystal pH ([1]; original liquid pH 2.50): 4.60
Crystal pH ([1]; original liquid pH 3.00): 5.16
Crystal pH ([1]; original liquid pH 3.50): 5.54
Crystal pH ([1]; original liquid pH 4.00): 5.64
Crystal pH ([1]; original liquid pH 5.50): 5.97
Crystal pH ([1]; original liquid pH 6.50): 6.32
Crystal pH ([1]; original liquid pH 7.40): 6.66
Crystal pH ([1]; original liquid pH 7.80): 6.91
Crystal pH ([1]; original liquid pH 8.00): 7.12
Crystal pH ([1]; original liquid pH 8.10): 7.43
Crystal pH ([1]; original liquid pH 8.20): 7.97
rate of change in HPLC purity ([2]; 5° C., four weeks of storage, crystal pH 4.60): 0.01%
rate of change in HPLC purity ([2]; 5° C., four weeks of storage, crystal pH 5.16): 0.00%
rate of change in HPLC purity ([2]; 5° C., four weeks of storage, crystal pH 5.54): 0.00%
rate of change in HPLC purity ([2]; 5° C., four weeks of storage, crystal pH 5.64): 0.00%
rate of change in HPLC purity ([2]; 5° C., four weeks of storage, crystal pH 5.97): 0.00%
rate of change in HPLC purity ([2]; 5° C., four weeks of storage, crystal pH 6.32): 0.00%
rate of change in HPLC purity ([2]; 5° C., four weeks of storage, crystal pH 6.66): −0.01%
rate of change in HPLC purity ([2]; 5° C., four weeks of storage, crystal pH 6.91): 0.00%
rate of change in HPLC purity ([2]; 5° C., four weeks of storage, crystal pH 7.12): 0.00%
rate of change in HPLC purity ([2]; 5° C., four weeks of storage, crystal pH 7.43): 0.01%
rate of change in HPLC purity ([2]; 5° C., four weeks of storage, crystal pH 7.97): 0.03%
rate of change in HPLC purity ([2]; 25° C., four weeks of storage, crystal pH 4.60): −0.01%
rate of change in HPLC purity ([2]; 25° C., four weeks of storage, crystal pH 5.16): −0.02%
rate of change in HPLC purity ([2]; 25° C., four weeks of storage, crystal pH 5.54): −0.02%
rate of change in HPLC purity ([2]; 25° C., four weeks of storage, crystal pH 5.64): −0.01%
rate of change in HPLC purity ([2]; 25° C., four weeks of storage, crystal pH 5.97): −0.02%
rate of change in HPLC purity ([2]; 25° C., four weeks of storage, crystal pH 6.32): −0.01%
rate of change in HPLC purity ([2]; 25° C., four weeks of storage, crystal pH 6.66): −0.03%
rate of change in HPLC purity ([2]; 25° C., four weeks of storage, crystal pH 6.91): −0.02%
rate of change in HPLC purity ([2]; 25° C., four weeks of storage, crystal pH 7.12): −0.02%
rate of change in HPLC purity ([2]; 25° C., four weeks of storage, crystal pH 7.43): −0.01%
rate of change in HPLC purity ([2]; 25° C., four weeks of storage, crystal pH 7.97): −0.01%
rate of change in HPLC purity ([2]; 40° C., four weeks of storage, crystal pH 4.60): −0.05%
rate of change in HPLC purity ([2]; 40° C., four weeks of storage, crystal pH 5.16): −0.04%
rate of change in HPLC purity ([2]; 40° C., four weeks of storage, crystal pH 5.54): −0.03%
rate of change in HPLC purity ([2]; 40° C., four weeks of storage, crystal pH 5.64): −0.02%
rate of change in HPLC purity ([2]; 40° C., four weeks of storage, crystal pH 5.97): −0.03%
rate of change in HPLC purity ([2]; 40° C., four weeks of storage, crystal pH 6.32): −0.02%
rate of change in HPLC purity ([2]; 40° C., four weeks of storage, crystal pH 6.66): −0.04%
rate of change in HPLC purity ([2]; 40° C., four weeks of storage, crystal pH 6.91): −0.04%
rate of change in HPLC purity ([2]; 40° C., four weeks of storage, crystal pH 7.12): −0.08%
rate of change in HPLC purity ([2]; 40° C., four weeks of storage, crystal pH 7.43): −0.15%
rate of change in HPLC purity ([2]; 40° C., four weeks of storage, crystal pH 7.97): −0.12%
rate of change in HPLC purity ([2]; 60° C., four weeks of storage, crystal pH 4.60): −0.25%
rate of change in HPLC purity ([2]; 60° C., four weeks of storage, crystal pH 5.16): −0.08%
rate of change in HPLC purity ([2]; 60° C., four weeks of storage, crystal pH 5.54): −0.07%
rate of change in HPLC purity ([2]; 60° C., four weeks of storage, crystal pH 5.64): −0.07%
rate of change in HPLC purity ([2]; 60° C., four weeks of storage, crystal pH 5.97): −0.08%
rate of change in HPLC purity ([2]; 60° C., four weeks of storage, crystal pH 6.32): −0.14%
rate of change in HPLC purity ([2]; 60° C., four weeks of storage, crystal pH 6.66): −0.18%
rate of change in HPLC purity ([2]; 60° C., four weeks of storage, crystal pH 6.91): −0.24%
rate of change in HPLC purity ([2]; 60° C., four weeks of storage, crystal pH 7.12): −0.46%
rate of change in HPLC purity ([2]; 60° C., four weeks of storage, crystal pH 7.43): −0.50%
rate of change in HPLC purity ([2]; 60° C., four weeks of storage, crystal pH 7.97): −0.87%
rate of change in HPLC purity ([2]; four weeks, one of: (1) 0° C. or more and less than 25° C., (2) 25° C. or more and less than 40° C. and crystal pH 4.5 to 8.0, (3) 40° C. or more and less than 60° C. and crystal pH 5.0 to 6.4): ≤ 0.15%
rate of change in HPLC purity ([2]; four weeks, one of: (4) 0° C. or more and less than 25° C., (5) 25° C. or more and less than 40° C. and crystal pH 4.5 to 7.4, (6) 40° C. or more and less than 60° C. and crystal pH 5.2 to 6.2): ≤ 0.10%
rate of change in HPLC purity ([2]; four weeks, one of: (7) 0° C. or more and less than 25° C., (8) 25° C. or more and less than 40° C. and crystal pH 4.6 to 6.6): ≤ 0.05%
decrease in HPLC purity ([2]; storage temperature 0° C. or more and less than 25° C.): substantially no decrease
decrease in HPLC purity ([2]; storage temperature of 60° C. or more): may significantly decrease
Structure (SMILES): O=c1ccn([C@@H]2O[C@H](COP(=O)(O)OP(=O)(O)OP(=O)(O)OP(=O)(O)OC[C@H]3O[C@@H](n4ccc(=O)[nH]c4=O)[C@H](O)[C@@H]3O)[C@@H](O)[C@H]2O)c(=O)[nH]1 [UP4U crystals, P^1,P^4-bis(5′-uridyl)tetraphosphate]
